We go through two compounds from patent US20060134048A1, “Reduction of hair growth” (priority 2004, published 2006).

One assay deals with hamster flank organs. Briefly: Golden Syrian Hamster assay. Type of assay: in vivo, Golden Syrian hamsters.
A further assay concerns Human hair follicles. Briefly: Human hair follicle growth assay. The conditions noted are these: 24 hours pre-incubation with 0.1 mM caffeine, then laser 0.75W for 100 msec; hair shaft growth after four to six days. It is filed as cell-based.

Procedure for Human hair follicles: Human Hair Follicle Growth Assay:
Human hair follicles in growth phase (anagen) were isolated from face-lift tissue (obtained from plastic surgeons) under dissecting scope using a scalpel and watchmakers forceps. The skin was sliced into thin strips exposing 2-3 rows of follicles that could readily be dissected. Follicles were placed into 0.5 ml William's E medium (Life Technologies, Gaithersburg, Md.) supplemented with 2 mM L-glutamine, 10 μg/ml insulin, 10 ng/ml hydrocortisone, 100 units of penicillin, 0.1 mg/ml streptomycin and 0.25 μg/ml amphotericin B. The follicles were incubated in 24-well plates (1 follicle/well) at 37° C. in an atmosphere of 5% CO2 and 95% air. The HSP inhibitor or compound that promotes apoptosis is dissolved into dimethyl sulfoxide as 100-fold stock solution. […] The length of hair follicle was assessed using an image analysis software system. The growth of hair fiber was calculated by the subtracting the follicle length on day 0 from that determined on day 7.
Hair follicles were pre-incubated for 24 hours with 0.1 mM concentration of caffeine, and then some of the follicles were laser treated at 0.75W for 100 msec using a Coherent diode laser system. The length of each follicle was measured and the follicles then were placed in a 37° C. incubator for four to six days. Following incubation the hair shaft growth was measured.
Procedure for hamster flank organs: To evaluate the effectiveness of a composition in reducing hair growth (including when used in conjunction with heating), the flank organs of each of a group of hamsters are depilated by applying a thioglycolate based chemical depilatory (Surgex) and/or shaved. To one organ of each animal 10 μl. of vehicle alone once a day is applied, while to the other organ of each animal an equal amount of vehicle containing the HSP inhibitor or compound that promotes apoptosis under evaluation is applied. After three weeks of topical applications (one application per day for five days a week), with heating at a selected time(s) if the composition is used in conjunction with heating) the flank organs are shaved and the amount of recovered hair (hair mass) from each is weighed. Percent-reduction of hair growth is calculated by subtracting the hair mass (mg) value of the test compound treated side from the hair mass value of the vehicle treated side; the delta value obtained is then divided by the hair mass value of the vehicle treated side, and the resultant number is multiplied by 100. A composition including a vehicle 15% DMSO, 65% ethanol, 10% propylene glycol, and 10% di-propylene glycol and 5% quercetin by weight was tested in the Golden Syrian Hamster assay. […]

As for `O=c1c(O)c(-c2ccc(O)c(O)c2)oc2cc(O)cc(O)c12` [quercetin], the hair growth inhibition is on record as 36% in the assay with hamster flank organs (5% quercetin for four days prior to 15W/0.75 sec laser, compared to flank organs given the same laser pulse without quercetin pretreatment) and 15% in the assay on hamster flank organs (5% quercetin topical only, three weeks, compared to vehicle control flank organs). As for `Cn1c(=O)c2c(ncn2C)n(C)c1=O` [caffeine], the “reduction in hair growth compared with the control group” value with Human hair follicles is “significant reduction in hair growth”.
